From PubChem BioAssay AID248 (DTP/NCI, 2004)
Where “and” joins values, the source holds several entries; their conditions need not be identical. Equal values may be shown once. Toxic doses and inconclusive results are not listed.

Test system: L1210 leukemia ip in BDF1 mice, survival T/C
Experiment: NCI In Vivo Anticancer Drug Screen. Data for tumor model L1210 Leukemia (intraperitoneal) in B6D2F1 (BDF1) mice
Details: endpoint: mean survival time, higher = longer survival
How it was run: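 Survival endpoint. Drug-treated group vs vehicle group, expressed as T divided by C. Tumor passaged by transplantation.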

[1] = dose: 100.0 mg/kg/injection, schedule: Q04DX003 (ip), vehicle: saline with Tween-80
[2] = dose: 200.0 mg/kg/injection, schedule: Q04DX003 (ip), vehicle: saline with Tween-80
[3] = dose: 400.0 mg/kg/injection, schedule: Q04DX003 (ip), vehicle: saline with Tween-80
[4] = dose: 100.0 mg/kg/injection, schedule: Q04DX003 (ip), vehicle: saline
[5] = dose: 200.0 mg/kg/injection, schedule: Q04DX003 (ip), vehicle: saline

With `CCCCCCCCCCCCCCCC(=O)OCCCCCCCCCCCCC` the T/C [1] was 95 % of control, the T/C [2] was 90 % of control and the T/C [3] was 86 % of control.

`Cn1c(=O)c2[nH]c(C3CCC3)nc2n(C)c1=O` was tested, and the T/C (dose: 50.0 mg/kg/injection, schedule: Q01DX001 (ip), vehicle: saline) was 110 % of control, the T/C (dose: 100.0 mg/kg/injection, schedule: Q01DX001 (ip), vehicle: saline) was 113 % of control and the T/C (dose: 200.0 mg/kg/injection, schedule: Q01DX001 (ip), vehicle: saline) was 101 % of control. The T/C (dose: 400.0 mg/kg/injection, schedule: Q01DX001 (ip), vehicle: saline) was 107 % of control.

In the case of `CCOc1ccc(NC(=O)Nc2ccccc2)cc1`, the T/C (dose: 100.0 mg/kg/injection, schedule: Q01DX009 (ip), vehicle: saline with Tween-80) is reported as 94 % of control, the T/C [1] is reported as 96 % of control and the T/C (dose: 200.0 mg/kg/injection, schedule: Q01DX009 (ip), vehicle: saline with Tween-80) is reported as 93 % of control. For the same compound, the T/C [2] was 94 % of control, the T/C (dose: 400.0 mg/kg/injection, schedule: Q01DX009 (ip), vehicle: saline with Tween-80) was 93 % of control and the T/C [3] was 94 % of control.

For `CC(=O)C(C#N)C(C)=O.CC(=O)C(C#N)C(C)=O.[Mn]`, the T/C (dose: 100.0 mg/kg/injection, schedule: Q01DX009 (ip), vehicle: saline) was 107 % of control, the T/C [4] was 105 % of control and the T/C [5] was 102 % of control.

`O=C(c1ccccc1)c1cc(O)c(O)c(O)c1` was tested, and the T/C (dose: 100.0 mg/kg/injection, schedule: Q01DX009 (ip), vehicle: other) was 99 % of control, the T/C [4] was 100 % of control and the T/C (dose: 200.0 mg/kg/injection, schedule: Q01DX009 (ip), vehicle: other) was 90 % of control. For the same compound, the T/C [5] was 94 % of control, the T/C (dose: 400.0 mg/kg/injection, schedule: Q01DX009 (ip), vehicle: other) was 99 % of control and the T/C (dose: 400.0 mg/kg/injection, schedule: Q04DX003 (ip), vehicle: saline) was 100 % of control.

In the case of `CC1CN1C(=O)Nc1cccc2c(NC(=O)N3CC3C)cccc12` (stereo not given), the T/C (dose: 1.58 mg/kg/injection, schedule: Q01DX009 (ip), vehicle: Klucel (hydroxypropylcellulose) (HPC)) is reported as 95 % of control, the T/C (dose: 2.38 mg/kg/injection, schedule: Q01DX009 (ip), vehicle: Klucel (hydroxypropylcellulose) (HPC)) is reported as 101 % of control and the T/C (dose: 12.34 mg/kg/injection, schedule: Q01DX009 (ip), vehicle: Klucel (hydroxypropylcellulose) (HPC)) is reported as 122 % of control. The T/C (dose: 12.5 mg/kg/injection, schedule: Q04DX003 (ip), vehicle: Klucel (hydroxypropylcellulose) (HPC)) was 117 % of control, the T/C (dose: 35.0 mg/kg/injection, schedule: Q04DX003 (ip), vehicle: Klucel (hydroxypropylcellulose) (HPC)) was 105 % of control and the T/C (dose: 50.0 mg/kg/injection, schedule: Q01DX001 (ip), vehicle: Klucel (hydroxypropylcellulose) (HPC)) was 118 % of control and 121 % of control. For the same compound, the T/C (dose: 50.0 mg/kg/injection, schedule: Q04DX003 (ip), vehicle: Klucel (hydroxypropylcellulose) (HPC)) was 157 % of control, the T/C (dose: 55.0 mg/kg/injection, schedule: Q04DX003 (ip), vehicle: Klucel (hydroxypropylcellulose) (HPC)) was 207 % of control and the T/C (dose: 75.0 mg/kg/injection, schedule: Q01DX001 (ip), vehicle: Klucel (hydroxypropylcellulose) (HPC)) was 119 % of control. For the same compound, the T/C (dose: 75.0 mg/kg/injection, schedule: Q04DX003 (ip), vehicle: Klucel (hydroxypropylcellulose) (HPC)) was 117 % of control, the T/C (dose: 85.0 mg/kg/injection, schedule: Q01DX009 (ip), vehicle: Klucel (hydroxypropylcellulose) (HPC)) was 89 % of control and the T/C (dose: 85.0 mg/kg/injection, schedule: Q04DX003 (ip), vehicle: Klucel (hydroxypropylcellulose) (HPC)) was 116 % of control. For the same compound, the T/C (dose: 170.0 mg/kg/injection, schedule: Q04DX003 (ip), vehicle: Klucel (hydroxypropylcellulose) (HPC)) was 118 % of control and the T/C (dose: 200.0 mg/kg/injection, schedule: Q01DX001 (ip), vehicle: Klucel (hydroxypropylcellulose) (HPC)) was 88 % of control.

In the case of `NC(CCl)=NCC1CCCCCCC1`, the T/C (dose: 25.0 mg/kg/injection, schedule: Q01DX009 (ip), vehicle: Klucel (hydroxypropylcellulose) (HPC)) is reported as 103 % of control, the T/C (dose: 25.0 mg/kg/injection, schedule: Q04DX002 (ip), vehicle: Klucel (hydroxypropylcellulose) (HPC)) is reported as 100 % of control and the T/C (dose: 50.0 mg/kg/injection, schedule: Q04DX002 (ip), vehicle: Klucel (hydroxypropylcellulose) (HPC)) is reported as 107 % of control. For the same compound, the T/C (dose: 100.0 mg/kg/injection, schedule: Q04DX002 (ip), vehicle: Klucel (hydroxypropylcellulose) (HPC)) was 101 % of control and 89 % of control.
